From patent US20250179061A1 (SIRONAX LTD., priority 2022, published 2025) come the findings set out here.

The test system of the assay is HT-29 cells. Put plainly: HT-29 necroptosis cell viability assay (TNF-α/SMAC mimetic/zVAD-FMK, CellTiter-Glo). It counts as cell-based. The settings on record: Homo sapiens. A digest of the protocol: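 HT-29 cells (~5,000/well, overnight) in FBS-free McCoy's 5A with TNF-α 10 ng/ml, SMAC mimetic 6 μM and zVAD-FMK 10 μM plus 10-point 1:3 compound titration, 20 h at 37°C. ATP measured by CellTiter-Glo luminescence; IC50 as geometric mean of duplicates.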
For orientation: In ATP-based viability assays light output follows the ATP content of the culture.

The mark [1] stands for this setting: HT-29, HT-29 necroptosis cell viability, IC50 class symbols, read-out: Activity.
The mark [2] stands for this setting: HT-29, HT-29 necroptosis cell viability assay, class symbols for IC50, read-out: Activity.
[3] abbreviates: HT-29 cells stimulated with TNF-α (10 ng/ml), SMAC mimetic (6 μM) and zVAD-FMK (10 μM), 20 hours, CellTiter-Glo ATP luminescence, geometric mean IC50 from 10 points, read-out: Activity.

Like-named read-outs stand apart in the source and are kept apart here.

On to `COC1(C#N)CN(c2cc(Oc3ccc(-n4ncn(Cc5c(F)cccc5F)c4=O)cc3)c(F)cn2)C1` [Example 302, 1-(4-(4-(4-(2,6-difluorobenzyl)-5-oxo-4,5-dihydro-1H-1,2,4-triazol-1-yl)phenoxy)-5-fluoropyridin-2-yl)-3-methoxyazetidine-3-carbonitrile], for which the IC50 under setting [1] is < 100 nM.
Turning to `CCCOC1CN(c2cc(Oc3ccc(-n4ncn(Cc5c(F)cccc5F)c4=O)cc3)ccn2)C1` [Example 243, 4-(2,6-difluorobenzyl)-2-(4-((2-(3-propoxyazetidin-1-yl)pyridin-4-yl)oxy)phenyl)-2,4-dihydro-3H-1,2,4-triazol-3-one], the IC50 under setting [1] was < 100 nM.
`Cc1nc(C2CC(C(N)=O)C2)sc1Oc1ccc(-n2ncn(Cc3c(F)cccc3F)c2=O)cc1F` (stereo not drawn) [Example 113, 3-(5-(4-(4-(2,6-difluorobenzyl)-5-oxo-4,5-dihydro-1H-1,2,4-triazol-1-yl)-2-fluorophenoxy)-4-methylthiazol-2-yl)cyclobutane-1-carboxamide]: the IC50 under setting [2] is < 100 nM.
Consider `O=c1n(Cc2c(F)cccc2F)cnn1-c1ccc(Oc2ccnc(NC3CC4(COC4)C3)c2)cc1` [Example 530, 2-(4-((2-((2-oxaspiro[3.3]heptan-6-yl)amino)pyridin-4-yl)oxy)phenyl)-4-(2,6-difluorobenzyl)-2,4-dihydro-3H-1,2,4-triazol-3-one], for which the IC50 under setting [2] lay within 100 to 1000 nM.
For the compound `Cc1nc(Oc2ccc(-n3ncn(Cc4c(F)cccc4F)c3=O)cc2)sc1C` [Example 78, 4-(2,6-difluorobenzyl)-2-(4-((4,5-dimethylthiazol-2-yl)oxy)phenyl)-2,4-dihydro-3H-1,2,4-triazol-3-one], under setting [3], the IC50 was 100 to 1000 nM.
As to `N#Cc1cc(Oc2ccc(-n3ncn(Cc4c(F)cccc4F)c3=O)cc2F)c(F)cn1` [Example 402, 4-(4-(4-(2,6-difluorobenzyl)-5-oxo-4,5-dihydro-1H-1,2,4-triazol-1-yl)-2-fluorophenoxy)-5-fluoropicolinonitrile], the IC50 under setting [1] is < 100 nM.
As to `Cc1cn(C)c(=O)n1Cc1ccc(-n2ncn(Cc3c(F)cccc3F)c2=O)cc1` [Example 214, 4-(2,6-difluorobenzyl)-2-(4-((3,5-dimethyl-2-oxo-2,3-dihydro-1H-imidazol-1-yl)methyl)phenyl)-2,4-dihydro-3H-1,2,4-triazol-3-one], the IC50 under setting [2] was in the range of 1000 to 10000 nM.
On the same count and under the same terms, then `O=c1n(Cc2c(F)cccc2F)cnn1-c1ccc(Oc2ccnc(NCC3CCCO3)c2)cc1` (stereo not drawn) [Example 484, 4-(2,6-difluorobenzyl)-2-(4-((2-(((tetrahydrofuran-2-yl)methyl)amino)pyridin-4-yl)oxy)phenyl)-2,4-dihydro-3H-1,2,4-triazol-3-one], with 100 to 1000 nM.
For the compound `CN(C)c1cc(C#N)ccc1Oc1ccc(-n2ncn(Cc3c(F)cccc3F)c2=O)cc1F` [Example 676, 4-(4-(4-(2,6-difluorobenzyl)-5-oxo-4,5-dihydro-1H-1,2,4-triazol-1-yl)-2-fluorophenoxy)-3-(dimethylamino)benzonitrile], for the setting “HT-29, HT-29 cells, necroptosis induced by TNF-α/SMAC mimetic/zVAD-FMK, CellTiter-Glo, read-out: Activity (IC50 class)”, the IC50 is < 100 nM.
Regarding `N#Cc1cc(S(=O)(=O)c2ccc(-n3ncn(Cc4ccccc4)c3=O)cc2)ccn1` [Example 615, 4-((4-(4-benzyl-5-oxo-4,5-dihydro-1H-1,2,4-triazol-1-yl)phenyl)sulfonyl)picolinonitrile], the IC50 under setting [2] was < 100 nM.
For `Cc1nc(C(C)(C)O)sc1Oc1ccc(-n2ncn(Cc3cnccc3Cl)c2=O)cc1F` [Example 467, 4-((4-chloropyridin-3-yl)methyl)-2-(3-fluoro-4-((2-(2-hydroxypropan-2-yl)-4-methylthiazol-5-yl)oxy)phenyl)-2,4-dihydro-3H-1,2,4-triazol-3-one], the IC50 under setting [1] was 100 to 1000 nM.
As to `Cc1nc(C2CCOC2)sc1Oc1ccc(-n2ncn(Cc3c(F)cccc3F)c2=O)cc1` (stereo not drawn) [Example 550, 4-(2,6-difluorobenzyl)-2-(4-((4-methyl-2-(tetrahydrofuran-3-yl)thiazol-5-yl)oxy)phenyl)-2,4-dihydro-3H-1,2,4-triazol-3-one], the IC50 under setting [2] was < 100 nM.
Regarding `O=c1n(-c2ccc(Oc3cccnc3)cc2)nc(Cl)n1Cc1ccccc1` [Example 427, 4-benzyl-5-chloro-2-(4-(pyridin-3-yloxy)phenyl)-2,4-dihydro-3H-1,2,4-triazol-3-one], the IC50 under setting [1] was < 100 nM.
Take `O=c1n(Cc2c(F)cccc2F)cnn1-c1ccc(Oc2cc(C3=CCOCC3)ncc2F)c(F)c1` [Example 548, 4-(2,6-difluorobenzyl)-2-(4-((2-(3,6-dihydro-2H-pyran-4-yl)-5-fluoropyridin-4-yl)oxy)-3-fluorophenyl)-2,4-dihydro-3H-1,2,4-triazol-3-one]: under setting [2], the IC50 is < 100 nM.
For `N#CC12CC(Nc3cc(Oc4ccc(-n5ncn(Cc6c(F)cccc6F)c5=O)cc4)c(Cl)cn3)(C1)C2` [Example 325, 3-((5-chloro-4-(4-(4-(2,6-difluorobenzyl)-5-oxo-4,5-dihydro-1H-1,2,4-triazol-1-yl)phenoxy)pyridin-2-yl)amino)bicyclo[1.1.1]pentane-1-carbonitrile], the IC50 under setting [1] is < 100 nM.
On to `Cc1nc(C(N)=O)sc1Oc1ccc(-n2ncn(Cc3c(F)cccc3C#N)c2=O)cc1F` [Example 567, 5-(4-(4-(2-cyano-6-fluorobenzyl)-5-oxo-4,5-dihydro-1H-1,2,4-triazol-1-yl)-2-fluorophenoxy)-4-methylthiazole-2-carboxamide], for which the IC50 under setting [2] is < 100 nM.
For the compound `O=c1n(Cc2c(F)cccc2F)cnn1-c1ccc(Oc2nc(CO)cs2)cc1` [Example 96, 4-(2,6-difluorobenzyl)-2-(4-((4-(hydroxymethyl)thiazol-2-yl)oxy)phenyl)-2,4-dihydro-3H-1,2,4-triazol-3-one], the IC50 under setting [3] fell in the range of 100 to 1000 nM.
Consider `O=c1n(Cc2c(F)cccc2F)cnn1-c1ccc(Oc2c(N3CC4(CCOCC4)C3)ccnc2Cl)cc1` [Example 307, 2-(4-((2-chloro-4-(7-oxa-2-azaspiro[3.5]nonan-2-yl)pyridin-3-yl)oxy)phenyl)-4-(2,6-difluorobenzyl)-2,4-dihydro-3H-1,2,4-triazol-3-one], for which, under setting [1], the IC50 lay in the range of 100 to 1000 nM.
As for `CCOC(=O)c1scnc1Oc1ccc(-n2ncn(Cc3c(F)cccc3F)c2=O)cc1F` [Example 93, ethyl 4-(4-(4-(2,6-difluorobenzyl)-5-oxo-4,5-dihydro-1H-1,2,4-triazol-1-yl)-2-fluorophenoxy)thiazole-5-carboxylate], the IC50 under setting [3] lay within 100 to 1000 nM.
Take `Cn1c(Oc2ccc(-n3nc(Cl)n(Cc4ccccc4)c3=O)cc2)cccc1=O` [Example 429, 6-(4-(4-benzyl-3-chloro-5-oxo-4,5-dihydro-1H-1,2,4-triazol-1-yl)phenoxy)-1-methylpyridin-2(1H)-one]: the IC50 under setting [1] fell in the range of 100 to 1000 nM.
The same measure, in the same setting: in the case of `Cc1nc(N2CCOCC2)sc1Oc1ccc(-n2ncn(Cc3c(F)cccc3F)c2=O)cc1F` [Example 295, 4-(2,6-difluorobenzyl)-2-(3-fluoro-4-((4-methyl-2-morpholinothiazol-5-yl)oxy)phenyl)-2,4-dihydro-3H-1,2,4-triazol-3-one] it was < 100 nM.
As to `Cc1csc(Cn2cnn(-c3ccc(Oc4sc(C(C)(C)O)nc4C)c(F)c3)c2=O)n1` [Example 578, 2-(3-fluoro-4-((2-(2-hydroxypropan-2-yl)-4-methylthiazol-5-yl)oxy)phenyl)-4-((4-methylthiazol-2-yl)methyl)-2,4-dihydro-3H-1,2,4-triazole-3-one], under setting [2], the IC50 lay in the range of 100 to 1000 nM.
Regarding `N#CC1CCN(c2cc(Oc3ccc(-n4ncn(Cc5c(F)cccc5F)c4=O)cc3)ccn2)CC1` [Example 255, 1-(4-(4-(4-(2,6-difluorobenzyl)-5-oxo-4,5-dihydro-1H-1,2,4-triazol-1-yl)phenoxy)pyridin-2-yl)piperidine-4-carbonitrile], the IC50 under setting [1] was 100 to 1000 nM.
For the compound `Cc1nc(N2CC3(CCN3)C2)sc1Oc1ccc(-n2ncn(Cc3c(F)cccc3F)c2=O)cc1` [Example 455, 4-(2,6-difluorobenzyl)-2-(4-((4-methyl-2-(1,6-diazaspiro[3.3]heptan-6-yl)thiazol-5-yl)oxy)phenyl)-2,4-dihydro-3H-1,2,4-triazol-3-one], the IC50 under setting [1] is < 100 nM.
With `Cc1nc(C2(N)CC2)sc1Oc1ccc(-n2ncn(Cc3c(F)cccc3F)c2=O)cc1F` [Example 613, 2-(4-((2-(1-aminocyclopropyl)-4-methylthiazol-5-yl)oxy)-3-fluorophenyl)-4-(2,6-difluorobenzyl)-2,4-dihydro-3H-1,2,4-triazol-3-one], under setting [2], the IC50 was < 100 nM.
Turning to `Cc1csc(COc2ccc(-n3ncn(Cc4c(F)cccc4F)c3=O)cc2)n1` [Example 98, 4-(2,6-difluorobenzyl)-2-(4-((4-methylthiazol-2-yl)methoxy)phenyl)-2,4-dihydro-3H-1,2,4-triazol-3-one], under setting [3], the IC50 was in the range of 100 to 1000 nM.
Turning to `O=c1n(Cc2c(F)cccc2F)cnn1-c1ccc(Oc2c(Cl)cccc2[N+](=O)[O-])cc1` [Example 434, 2-(4-(2-chloro-6-nitrophenoxy)phenyl)-4-(2,6-difluorobenzyl)-2,4-dihydro-3H-1,2,4-triazol-3-one], the IC50 under setting [1] was < 100 nM.
As to `Cc1nc(C(C)O)sc1Oc1ccc(-n2nc3n(c2=O)[C@H](c2ccccc2)CC3)cc1F` (single isomer, unassigned) [Example 149], the IC50 under setting [2] was < 100 nM.
With `Cc1nc(C(N)C(F)F)sc1Oc1ccc(-n2ncn(Cc3c(F)cccc3F)c2=O)cc1F` (stereo not drawn) [Example 447, 2-(4-((2-(1-amino-2,2-difluoroethyl)-4-methylthiazol-5-yl)oxy)-3-fluorophenyl)-4-(2,6-difluorobenzyl)-2,4-dihydro-3H-1,2,4-triazol-3-one], under setting [1], the IC50 was < 100 nM.
For the compound `Cc1nc(CN2CCCC2)sc1Oc1ccc(-n2ncn(Cc3c(F)cccc3F)c2=O)cc1F` [Example 212, 4-(2,6-difluorobenzyl)-2-(3-fluoro-4-((4-methyl-2-(pyrrolidin-1-ylmethyl)thiazol-5-yl)oxy)phenyl)-2,4-dihydro-3H-1,2,4-triazol-3-one], the IC50 under setting [2] was < 100 nM.
